Laboratory results published in patent US20080171037A1, “Apo-3 ligand polypeptide” (Genentech, Inc., priority 1997, published 2008).
One block for each compound: values may come before it. Where a SMILES comes first, the peptide text is derived from it. The star is where a group is joined. Cbz = O=C(OCc1ccccc1)*; CH2F = FC*

How the values were obtained:
DR5 = molecular target: T1, DR5 (Homo sapiens, UniProt O14763); experiment: Co-immunoprecipitation binding assay with DR5 ECD; conditions: ligand and receptor 1 μg/ml, FIG. 8A
T1 construct: the ECD of the Apo-2L receptor, DR5; made in house
T1 sequence (O14763 56-184 limits assumed): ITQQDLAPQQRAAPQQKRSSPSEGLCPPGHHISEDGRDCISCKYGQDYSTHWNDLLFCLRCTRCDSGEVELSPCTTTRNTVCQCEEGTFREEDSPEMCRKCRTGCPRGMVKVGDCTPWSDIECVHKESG
Method: A Flag-epitope tagged soluble Apo-3 was produced (as described for DR5 in Sheridan et al., Science, 277:818 (1997)) and tested in a co-immunoprecipitation assay to examine its ability to associate with a histidine tagged soluble Apo-3 Ligand (see Example 3 above). […] The respective ligands (1 μg/ml) and receptors (1 μg/ml) were incubated for 1 hour at room temperature. The reaction mixtures were subjected to precipitation with anti-Flag antibody conjugated to sepharose beads (Kodak) (FIG. 8A, left) or nickel-sepharose (Qiagen) (FIG. 8A, right) by overnight incubation at 4° C. according to manufacturer's instructions and resolved by gel electrophoresis. The ligands were visualized by Western blot analysis with nickel-conjugated horseradish peroxidase. In FIG. 8A, molecular weight markers (kDa) are indicated on the left.

[1] = tested on: MCF-7 breast carcinoma cells; experiment: Apoptosis in MCF-7 breast carcinoma cells (microscopy, Hoechst dye); format: cell-based, human; conditions: MCF-7 cells pre-treated 1 hour, then 14 hours with ligand, FIG. 9B
Method: Human MCF-7 breast carcinoma cells (ATCC HTB 22) were pre-treated for 1 hour with cyclohexamide (CHX) (10 μg/ml) and incubated for 14 hours with soluble Apo-3 Ligand (2 μg/ml; prepared as described in Example 3 above) alone or together with zVAD-fmk (Research Biochemicals) (100 nM). The cells were then stained with Hoechst dye and photographed by phase (FIG. 9A, left) and by fluorescence (FIG. 9A, right) microscopy. In FIG. 9A, arrowheads indicate some of the apoptotic cells (left) and their condensed nuclei (right).
In a separate experiment, the MCF-7 cells were pre-treated for 1 hour with buffer or CHX, incubated for an additional 14 hours with the indicated concentrations of soluble Apo-3 Ligand (see FIG. 9B), and apoptotic or live cells were score by microscopy.

[2] = tested on: HeLa S3 cervical carcinoma cells; experiment: Apoptosis in HeLa S3 cells (DNA fragmentation analysis); format: cell-based, human; conditions: HeLa S3 cells, inhibitor 100 nM, FIG. 9C
Method: HeLa S3 cervical carcinoma cells (ATCC CCL 2.2) were similarly pre-treated with CHX and then incubated with soluble Apo-3 Ligand (prepared as described in Example 3 above) alone or together with zVAD-fmk or DEVD-fmk (Research Biochemicals) (100 nM). The treated cells were then subjected to DNA fragmentation analysis.

HeLa cells = experiment: Apoptosis in HeLa cells transfected with full length Apo-3 Ligand (FACS, annexin V binding); format: cell-based, human; conditions: HeLa cells, inhibitor 200 μM, FIG. 6
Method: A pRK5 plasmid (see EP 307,247) encoding Apo-3 Ligand polypeptide (amino acids 1 to 249 of FIG. 1), or empty pRK5 plasmid, was transiently transfected along with a pRK5 plasmid encoding human CD4 as a marker for transfection into human HeLa cells by electroporation, and the cells were plated in tissue culture dishes. Four hours later, the caspase inhibitor z-VAD-fmk (Research Biochemicals) (200 μM) was added to some of the dishes. Twenty hours later, apoptosis was determined by FACS analysis of cells positive for the CD4 marker by measuring binding of fluorescein isothiocyanate (FITC)-conjugated annexin V (Brand Applications) (see WO 97/25428).

[3] = tested on: Jun N-terminal kinase (JNK/SAPK); experiment: JNK/SAPK activity in 293 cells transfected with full length Apo-3 Ligand; format: cell-based, human; conditions: 293 cells, inhibitor 200 μM, FIG. 7
Method: The pRK5 plasmid encoding Apo-3 Ligand polypeptide or empty pRK5 plasmid (see Example 6 above) was transiently transfected into human 293 cells (ATCC CCL 1573) by calcium phosphate precipitation. Four hours later, one set of cells was treated with z-VAD-fmk (Research Biochemicals) (200 μM). Twenty hours later, the cells were harvested and analyzed for activity of Jun N-terminal kinase (JNK; also called stress activated protein kinase or SAPK) using a commercially available JNK/SAPK assay kit (New England Biolabs), and according to the manufacturer's instructions.

Apo-3 Ligand = molecular target: T2, Apo-3 Ligand (Homo sapiens, UniProt O43508); experiment: Apoptosis induction by Apo-3 Ligand after preincubation with Flag tagged Apo-3 and immunodepletion; format: cell-based; conditions: preincubation of ligand and immunodepletion of complexes with anti-Flag beads, FIG. 8B
T2 construct: made in house; host or cells: E. coli
T2 sequence (O43508 47-249): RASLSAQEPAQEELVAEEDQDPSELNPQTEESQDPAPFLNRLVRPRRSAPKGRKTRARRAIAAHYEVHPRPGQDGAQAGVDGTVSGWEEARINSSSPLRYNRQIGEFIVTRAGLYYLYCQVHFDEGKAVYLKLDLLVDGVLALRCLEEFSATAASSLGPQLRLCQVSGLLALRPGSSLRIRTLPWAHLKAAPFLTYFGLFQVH
Text: Thus, there appeared to be a specific complex formation between Apo-3 Ligand and Apo-3.

binding to DR5 (DR5): bound to DR5
Compound: Apo-2 Ligand: TNF family cytokine, also referred to as TRAIL, tested for comparison

Compound: C[C@@H]1C[C@@H]([C@H](O)CC2CC(=O)NC(=O)C2)C(=O)[C@@H](C)C1 [cyclohexamide, reference compound]
effect on Apo-3 ligand-induced apoptosis [1]: augmented

Compound: DEVD-fmk
effect on induction of apoptosis by Apo-3 Ligand [2]: blocked induction of apoptosis

Compound: COC(=O)C[C@H](NC(=O)[C@H](C)NC(=O)[C@@H](NC(=O)OCc1ccccc1)C(C)C)C(=O)CF [z-VAD-fmk, reference compound] (Cbz-Val-Ala-Asp(OMe)-CH2F)
effect on the increase in apoptosis by Apo-3 Ligand transfection (HeLa cells): blocked | effect on JNK activation by Apo-3 Ligand [3]: augmented JNK activation | effect on induction of apoptosis by Apo-3 Ligand [2]: blocked induction of apoptosis

effect on apoptosis induction by Apo-3 Ligand (Apo-3 Ligand): inhibited apoptosis induction
Compound: Flag tagged Apo-3: Flag-epitope tagged soluble Apo-3 receptor (also DR3, Wsl-1, TRAMP, LARD)
